Measured values published in patent publication US5352707A, “Method for treating airway congestion” (Harbor Branch Oceanographic Institution, Inc., priority 1992, dated 1994).

How the values were obtained:
H3 receptor = target: T1, H3 receptor (Cavia porcellus, UniProt Q9JI35); assay: H3 Receptor Binding Assay ([3H]R-α-methylhistamine, guinea pig brain membranes); details: 3 nM [3H]R-α-methylhistamine, 30° C., 30 minutes
T1 construct: The source of the H3 receptors in this experiment was guinea pig brain; from tissue; host or cells: guinea pig brain membranes
Protocol: The source of the H3 receptors in this experiment was guinea pig brain. The animals used weighed 400-600 g. The tissue was homogenized using a Polytron in a solution of 50 mM Tris, pH 7.5. The final concentration of tissue in the homogenization buffer was 10% w/v. The homogenates were centrifuged at 1000×g for 10 minutes in order to remove clumps of tissue and debris. The resulting supernatants were then centrifuged at 50,000×g for 20 minutes in order to sediment the membranes, which were next washed 3 times in homogenization buffer (50,000×g for 20 minutes each). The membranes were frozen and stored at -70° C. until needed.
All compounds to be tested were dissolved in DMSO (dimethyl sulfoxide) and then diluted into the binding buffer (50 mM Tris, pH 7.5) such that the final concentration was 2 μg/mL with 0.1% DMSO. Membranes were then added (400 μg of protein) to the reaction tubes. The reaction was started by the addition of 3 nM [^3 H]R-α-methylhistamine (8.8 Ci/mmol) and incubated at 30° C. for 30 minutes. Bound ligand was separated from unbound ligand by filtration, and the amount of radioactive ligand bound to the membranes was quantitated by liquid scintillation spectrometry. All incubations were performed in duplicate and the standard error was less than 10% in all instances.

guinea pig ileum = assay: Guinea Pig Ileum Assay (electrical field stimulated contractions; H3 agonism/antagonism vs Rα-methylhistamine); type: cell-based; details: for Guinea Pig Ileum: at 1 μg/ml, 1 μM chlorpheniramine in Tyrodes buffer
Protocol: Male guinea pigs (450-500 g) were sacrificed by cervical dislocation. Portions of the ileum (20-40 cm) were removed and placed in Tyrodes solution (NaCl, 8.0; KCl, 0.2; MgCl2.6H2 O, 0.2; CaCl2. 0.13; NaH2 PO4. 0.06; dextrose, 1.0; NaHCO3, 1.0 g/l). The ilea were cut into 2.5 cm segments, mounted between platinum wire coaxial electrodes and placed in water-jacketed organ baths containing 25 ml of the Tyrodes solution. Bath fluid temperature was maintained at 37° C. and aerated with 95% 02-5%CO2. The muscles were suspended from isometric force transducers (Grass FT023C) under 0.3 g resting tension. Contractions were amplified on a Buxco tension monitor and recorded on a Harvard polygraph. Monophasic rectangular-wave electrical pulses were delivered to the tissues every 60 seconds from a stimulator (model S-48, Grass Instruments Co.). The ileum segments were maximally stimulated with 3 volts at 40 Hz frequency and 1 mseconds duration in 1 pulse train every 60 seconds. The duration of 1 msecond was then decreased by 0.1 msecond until the size of the contraction reached 80% of the maximal response. Once this 80% response was determined it was evoked every 60 seconds throughout the experiment. All experiments were conducted with 1μM of chlorpheniramine present in the Tyrodes buffer.
Rα-methylhistamine inhibits the electrical field stimulated contractions of the guinea pig ileum and was used as the H3 agonist reference standard. H3 agonists were studied for their ability to inhibit the electrical field stimulated contractions and their activity was expressed as a percentage of the maximum Rα-methylhistamine effect. Agonists were tested by addition of logarithmically increasing doses to the bath fluid at intervals of 1 minute. […]
Relative potency for agonists was determined from the pD2 calculations (Furchgott, R.F., The Pharmacology of Vascular Smooth Muscle. Pharm. Rev. 7, 183, 1955.) on 5 separate tissues. Relative potency for antagonists was determined from pA2 calculations (See Furchgott, above) on 15 separate tissues.

T1 sequence (Q9JI35 whole entry): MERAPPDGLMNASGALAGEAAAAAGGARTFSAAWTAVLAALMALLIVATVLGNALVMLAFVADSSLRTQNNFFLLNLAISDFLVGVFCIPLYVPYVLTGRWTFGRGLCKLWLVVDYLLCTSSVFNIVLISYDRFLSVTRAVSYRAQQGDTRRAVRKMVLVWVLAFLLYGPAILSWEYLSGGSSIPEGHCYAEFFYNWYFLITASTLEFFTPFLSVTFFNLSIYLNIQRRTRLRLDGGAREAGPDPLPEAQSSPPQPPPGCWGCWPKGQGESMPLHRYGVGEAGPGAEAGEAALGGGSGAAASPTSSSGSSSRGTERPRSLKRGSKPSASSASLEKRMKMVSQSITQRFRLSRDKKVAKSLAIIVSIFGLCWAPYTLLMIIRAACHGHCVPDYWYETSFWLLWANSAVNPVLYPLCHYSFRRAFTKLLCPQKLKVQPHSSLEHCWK

Structure (SMILES) | IC50 (H3 receptor) [nM] | activity on the guinea pig ileum (guinea pig ileum) | Guinea Pig Ileum (guinea pig ileum) | H3 receptor Binding IC50 (H3 receptor) [µg/mL]
CN(C)CCCOc1c(Br)cc(CCN(C)C)cc1Br [Aplysamine-1] | 833 | active on the guinea pig ileum as an H3 -antagonist | antagonist | 
COC1=C(Br)C(O)C2(C=C1Br)CC(C(=O)NCCc1c[nH]cn1)=NO2 (centres unmarked) [Aerophobin-1] |  |  | not active | 4.3
